Data set [1] deals with pSUPER plasmid DNA. Briefly: Gel retardation assay (DNA binding). The settings on record: 30 minutes at 37°C, 1% agarose gel; N/P = peptide amino nitrogen / DNA phosphate. The method, then: The proportion between amino nitrogen (NH3 ^+) of HBc147-183 and phosphate (PO4 ^−) of DNA was defined as N/P ratio [35]. Briefly, HBc147-183 was incubated with pSUPER plasmid DNA at different N/P ratio (0, 0.2, 0.4, 0.6, 0.8, 1, 2, 3 and 4) for 30 minutes at 37°C. The mobility of pSUPER plasmid DNA was analyzed by electrophoresis on 1% agarose gel.

Data set [2] has as its system Staphylococcus aureus ATCC 19636. Briefly: Bacterial load in infected mice. It counts as in vivo, mouse. Conditions: 10 mg/kg i.p. at 1 hour, sampled 4 hours post-inoculation, n = 5. The method, then:
Three-week old male ICR mice (19 to 21 g) were purchased from BioLASCO (Taiwan). Overnight culture of bacteria in BHI broth (Difco) was subcultured in fresh BHI broth to log phase. Inoculums were diluted in BHI broth to indicated densities. To test the acute toxicity of ARD peptide in vivo, ICR male mice were inoculated intraperitoneally (i.p.) with 10 and 20 mg/kg HBc147-183 in PBS, respectively. Each group contained 5 mice. After peptide injection, the number of dead mice was recorded daily for 7 days post-injection. To test the antimicrobial activity of the ARD peptide in vivo, all mice were inoculated i.p. with Staphylococcus aureus ATCC 19636 (4×10^6 CFU/mouse) in BHI broth. Peptide HBc147-183 (10 mg/kg) was administered i.p. at 1, 1.5 and 2 hours post-inoculation. PBS (10 ml/kg) control was administered at 1 hour post-inoculation. […] Mortality was monitored daily for 7 days post-inoculation. […] The mice were anesthetized first before transferring to the IVIS imaging system (IVIS spectrum), and luminescence was measured with an exposure time of 1 minutes or less. The image system measured the number of photons and translated the data to false color images that depicted the region of strong luminescence with red, moderate luminescence with yellow and green, and mild luminescence with blue. […] Total flux (RLU) of region of interest (ROI) was quantified by the IVIS imaging software.

Data set [3] concerns Vero cells. Briefly: CFSE cell proliferation assay. The settings on record: 5, 25 and 100 µM for 1 hour; flow cytometry. It counts as cell-based, monkey. The method, then: To set up CFSE cell proliferation assay, 293 cells (human kidney origin) and Vero cells (monkey kidney origin) were resuspended in PBS to a final concentration of 10^6 cells/ml, before incubation with 10 µM CFSE dye (CellTrace CFSE cell proliferation kit, Invitrogen) at 37°C for 10 min. To quench the staining, ice-old culture media were then added and incubated on ice for 5 min. Labeled cells were then pelleted and washed three times by fresh medium containing 10% FBS before seeding into six well plates at a density of 3.3×10^5cells/well. After 20 h, the medium was removed and incubated with fresh medium containing 5, 25 and 100 µM HBc 147-183 for one hour (FITC-labeled ARD peptide had been largely internalized in 10 minutes after the addition of ARD peptides to the medium of HepG2 cells). Forty-eight hours later, cells were harvested and analyzed by flow cytometry (FACSCanto, BD Bioscience).
In general terms: A flow cytometer gives signals particle by particle.

Data set [4] can be described thus: In vitro peptide-Lipid A binding on streptavidin beads (LAL test). On the set-up: species or system Escherichia coli. Conditions: biotinylated peptide 0-2.5 µM on streptavidin beads, 200 µg/ml lipid A, triplicates. Here is the method:
Several kinds of peptide-LPS or peptide-Lipid A binding assays were performed in this study: 1) Streptavidine-conjugated beads (Dynabeads MyOne Streptavidin T1, Invitrogen) were blocked by P. aeruginosa LPS (Sigma) at 37°C for 1.5 hour. After washing with PBST (PBS, pH 7.4 containing 0.1% (w/v) Tween-20), aliquots containing 250 pmol streptavidine-conjugated beads were incubated with a reaction mixture overnight at 4°C. The reaction mixture was prepared by mixing increasing amounts of biotinylated peptide HBc147-183 (0, 0.004, 0.02, 0.1, 0.5 and 2.5 µM) and 5 µg/ml P. aeruginosa LPS (Sigma) or 200 µg/ml E. coli lipid A (Sigma), at 37°C for 3 hour. After incubation overnight at 4°C, the reduction of LPS (or Lipid A) in the supernatants were measured by the Limulus Amebocyte Lysate (LAL) test (Charles River Endosafe) with an ELISA reader (Molecular Devices). The amount (EU/ml) of LPS was calculated according to the standard curve prepared with Endosafe Control Srandard Endotoxin. […] After trypsinization, the trypsin-released LPS in the supernatants were collected and measured by the Limulus Amebocyte Lysate (LAL) test. […] Plate-bound HBc147-183 was measured by streptavidin conjugated with HRP (1∶10000 dilution) for 1 hour at 37°C. […] The absorption was measured at 450 nm with a reference wavelength at 655 nm.

Structures are written as SMILES. Residues, ends and D or L forms follow the SMILES beside them.

In the case of `CC(C)[C@H](NC(=O)[C@@H](NC(=O)[C@@H](N)[C@@H](C)O)C(C)C)C(=O)N[C@@H](CCCNC(=N)N)C(=O)N[C@@H](CCCNC(=N)N)C(=O)N[C@@H](CCCNC(=N)N)C(=O)NCC(=O)N[C@@H](CCCNC(=N)N)C(=O)N[C@@H](CO)C(=O)N1CCC[C@H]1C(=O)N[C@@H](CCCNC(=N)N)C(=O)N[C@@H](CCCNC(=N)N)C(=O)N[C@@H](CCCNC(=N)N)C(=O)N[C@H](C(=O)N1CCC[C@H]1C(=O)N[C@@H](CO)C(=O)N1CCC[C@H]1C(=O)N[C@@H](CCCNC(=N)N)C(=O)N[C@@H](CCCNC(=N)N)C(=O)N[C@@H](CCCNC(=N)N)C(=O)N[C@@H](CCCNC(=N)N)C(=O)N[C@@H](CO)C(=O)N[C@@H](CCC(N)=O)C(=O)N[C@@H](CO)C(=O)N1CCC[C@H]1C(=O)N[C@@H](CCCNC(=N)N)C(=O)N[C@@H](CCCNC(=N)N)C(=O)N[C@@H](CCCNC(=N)N)C(=O)N[C@@H](CCCNC(=N)N)C(=O)N[C@@H](CO)C(=O)N[C@@H](CCC(N)=O)C(=O)N[C@@H](CO)C(=O)N[C@@H](CCCNC(=N)N)C(=O)N[C@@H](CCC(=O)O)C(=O)N[C@@H](CO)C(=O)N[C@@H](CCC(N)=O)C(=O)N[C@@H](CS)C(=O)O)[C@@H](C)O` [HBc147-183] (H-TVVRRRGRSPRRRTPSPRRRRSQSPRRRRSQSRESQC-OH; N-terminus and C-terminus assumed), in data set [1], the “N/P ratio at which plasmid DNA was completely retarded” value was determined as 1. The “Bacterial load in blood, liver and spleen” value in data set [2] is ~10^4 cfu/ml. Further, the “Reduction of bacterial load in blood, liver and spleen vs PBS control” value in data set [2] (P<0.01) was found to be 100 fold. Moreover, the “Effect on cell proliferation (CFSE intensity, day 3 vs mock)” value in data set [3] was “no significant effect”. In data set [4], the “Binding to Lipid A” value is on record as “Lipid A can bind to HBc147-183 directly”.

The values are drawn from PMC3681751, “Identification of a Novel Antimicrobial Peptide from Human Hepatitis B Virus Core Protein Arginine-Rich Domain (ARD)” (PLoS Pathogens, 2013).
